The values that follow are results of earlier work, collected in patent EP4197526A1, “HYDROGEL FORMULATION COMPRISING ZEBULARINE AND RETIONIC ACID” (Uniwersytet Gdanski, priority 2021, dated 2023).

For the data set the following is noted: literature data.

SMILES strings stand for the structures. Values joined by “and” are separate entries in the source; they are usually repeats but may differ in a detail not shown here. Equal entries are not always repeated.

Turning to `CC1=C(/C=C/C(C)=C/C=C/C(C)=C/C(=O)O)C(C)(C)CCC1` [retinoic acid], the solubility in water is 0.000063 mg/ml and 0.21 microM.
Consider `O=c1ncccn1[C@@H]1O[C@H](CO)[C@@H](O)[C@H]1O` [zebularine], for which the solubility in water entry is “up to 50 mg/ml”.
